Experimental data as given in patent US9242984B2, “Pyrazolyl derivatives as Syk inhibitors” (Merck Sharp & Dohme Corp., priority 2012, dated 2016).

Target: T1, recombinant human Syk (GST-hSyk fusion protein) (Homo sapiens, UniProt P43405)
T1 construct: purchased Carna Biosciences 08-176
Assay: Homogeneous Time-Resolved Fluorescence (HTRF) assay for the recombinant human Syk enzyme
Assay type: biochemical
Conditions: 10-dose titration, 25 μM ATP; read-out: rhSYK IC50
Protocol: Syk inhibition may be determined using the following assay protocol:
Homogeneous Time-Resolved Fluorescence (HTRF) Assay for the Recombinant Human Syk Enzyme:
A recombinant GST-hSyk fusion protein was used to measure potency of compounds to inhibit human Syk activity. The recombinant human GST-Syk (Carna Biosciences #08-176) (5 pM final concentration) was incubated with various concentrations of the inhibitor diluted in DMSO (0.1% final concentration) for 10 minutes at room temperature in 15 mM Tris-HCl (pH 7.5), 0.01% tween 20, 2 mM DTT in 384 well plate format. To initiate the reaction the biotinylated substrate peptide (250 nM final concentration) that contains the phosphorylation site for Syk was added with magnesium (5 mM final concentration) and ATP (25 μM final concentration). Final volume of the reaction was 10 μL. Phosphorylation of the peptide was allowed to proceed for 45 minutes at room temperature. To quench the reaction and detect the phosphorylated product, 2 nM of a Europium-anti-phosphotyrosine antibody (Perkin Elmer #AD0161) and 70 nM SA-APC (Perkin-Elmer #CR130-100) were added together in 15 mM Tris pH 7.5, 40 mM EDTA, 0.01% tween 20. Final volume of the quenching solution was 10 μL. The resulting HTRF signal was measured after 30 minutes on an EnVision (Perkin-Elmer) reader using a time-resolved fluorescence protocol. IC50 was determined following 10-dose titration (10 μM to 0.508 nM) and four parameter logistic curve fitting using the Merck Assay Data Analyzer. The rhSyk activity (IC50) is expressed as +++(100 nM or less), ++(between 100 and 1000 nM), +(between 1 and 10 μM).

Row | IC50 | SMILES
1 | 7.8 nM | Cc1cc(Nc2nccc(C)n2)cc(-c2cnn(C3CCCC(O)C3O)c2)c1 (stereo not shown) [Example 10.8, 3-(4-{3-methyl-5-[(4-methylpyrimidin-2-yl)amino]phenyl}-1H-pyrazol-1-yl)cyclohexane-1,2-diol]
2 | 4.7 nM | Cc1cc(Nc2ncc(F)c(C(F)F)n2)cc(-c2cnn([C@H]3CCC[C@H](O)[C@@H]3O)c2)c1 (relative stereo) [Example 10.12, 3-[4-(3-{[4-(difluoromethyl)-5-fluoro-pyrimidin-2-yl]amino}-5-methylphenyl)-1H-pyrazol-1-yl]cyclohexane-1,2-diol]

Same assay, conditions: IC50 class; 10-dose titration, 25 μM ATP; read-out: rhSYK Activity

Row | IC50 | SMILES
3 | ≤ 100 nM | CC(=O)C(C)n1cc(-c2cc(C)cc(Nc3nccc(C(F)F)n3)c2)cn1 (stereo not shown) [Example 3.98, 3-[4-(3-{[4-(difluoromethyl)pyrimidin-2-yl]amino}-5-methylphenyl)-1H-pyrazol-1-yl]butan-2-one]
4 | ≤ 100 nM | Cc1cc(Nc2nccc(C)n2)cc(-c2cnn(C3CCCC(O)C3O)c2)c1 (stereo not shown) [Example 10.8, 3-(4-{3-methyl-5-[(4-methylpyrimidin-2-yl)amino]phenyl}-1H-pyrazol-1-yl)cyclohexane-1,2-diol]
5 | ≤ 100 nM | Cc1cc(Nc2ncccn2)cc(-c2cnn(CC3CNC(=O)O3)c2)c1 (stereo not shown) [Example 3.115, 5-({4-[3-methyl-5-(pyrimidin-2-ylamino)phenyl]-1H-pyrazol-1-yl}methyl)-1,3-oxazolidin-2-one]
6 | ≤ 100 nM | Cc1cc(Nc2nccc(C(F)(F)F)n2)cc(-c2cnn(C(C)C(N)=O)c2)c1 (racemic) [Example 8.8, 2-[4-(3-methyl-5-{[4-(trifluoromethyl)-pyrimidin-2-yl]amino}phenyl)-1H-pyrazol-1-yl]propanamide]
7 | ≤ 100 nM | Cc1cc(Nc2nccc(C(F)(F)F)n2)cc(-c2cn[nH]c2)c1 [Example 1.6, N-[3-methyl-5-(1H-pyrazol-4-yl)phenyl]-4-(trifluoromethyl)-pyrimidin-2-amine]

Further lines, the compound ahead of its results:

Row | SMILES | IC50
8 | Cc1cc(Nc2nccc(C(F)F)n2)cc(-c2cnn(CC3OC(=O)NC3(C)C)c2)c1 (stereo not shown) [Example 3.102, 5-{[4-(3-{[4-(difluoromethyl)pyrimidin-2-yl]amino}-5-methylphenyl)-1H-pyrazol-1-yl]methyl}-4,4-dimethyl-1,3-oxazolidin-2-one] | ≤ 100 nM
9 | Cc1cc(Nc2nccc(C(F)(F)F)n2)cc(-c2cnn(CC(O)c3ccc(C(=O)O)cc3)c2)c1 (stereo not shown) [Example 3.53, 4-{1-hydroxy-2-[4-(3-methyl-5-{[4-(trifluoromethyl)pyrimidin-2-yl]amino}-phenyl)-1H-pyrazol-1-yl]ethyl}benzoic acid] | ≤ 100 nM
10 | Cc1cc(Nc2nccc(C(C)C)n2)cc(-c2cnn(C[C@@H](O)C(=O)O)c2)c1 [Example 11.16, (2R)-2-hydroxy-3-[4-(3-methyl-5-{[4-(1-methylethyl)-pyrimidin-2-yl]amino}phenyl)-1H-pyrazol-1-yl]propanoic acid] | ≤ 100 nM
11 | COc1ccnc(Nc2cc(C)cc(-c3cnn(CC4CNC(=O)O4)c3)c2)n1 (stereo not shown) [Example 2.17, 5-[(4-{3-[(4-methoxypyrimidin-2-yl)amino]-5-methylphenyl}-1H-pyrazol-1-yl)methyl]-1,3-oxazolidin-2-one] | ≤ 100 nM
12 | Cc1cc(Nc2nccc(C(F)(F)F)n2)cc(-c2cnn(C[C@H](O)C(=O)O)c2)n1 [Example 11.18, (2S)-2-hydroxy-3-[4-(6-methyl-4-{[4-(trifluoro-methyl)pyrimidin-2-yl]amino}pyridin-2-yl)-1H-pyrazol-1-yl]propanoic acid] | ≤ 100 nM
13 | Cc1cc(Nc2nccc(C(F)(F)F)n2)cc(-c2cnn(CCCN)c2)c1 [Example 3.20, N-{3-[1-(3-aminopropyl)-1H-pyrazol-4-yl]-5-methylphenyl}-4-(trifluoromethyl)pyrimidin-2-amine] | ≤ 100 nM
14 | Cc1cc(Nc2nccc(C(C)(F)F)n2)cc(-c2cnn(CC(C)(O)C(C)(C)O)c2)c1 (stereo not shown) [Example 22.4, 1-[4-(3-{[4-(1,1-difluoroethyl)pyrimidin-2-yl]amino}-5-methylphenyl)-1H-pyrazol-1-yl]-2,3-dimethylbutane-2,3-diol] | ≤ 100 nM
15 | OC1(Cn2cc(-c3cccc(Nc4nccc(C(F)F)n4)c3)cn2)CCC1 [Example 29.4, 1-{[4-(3-{[4-(difluoromethyl)pyrimidin-2-yl]amino}phenyl)-1H-pyrazol-1-yl]methyl}cyclobutanol] | ≤ 100 nM
16 | Cc1cc(Nc2ncc(F)c(C(F)F)n2)cc(-c2cnn([C@H]3CCC[C@H](O)[C@@H]3O)c2)c1 (relative stereo) [Example 10.12, 3-[4-(3-{[4-(difluoromethyl)-5-fluoro-pyrimidin-2-yl]amino}-5-methylphenyl)-1H-pyrazol-1-yl]cyclohexane-1,2-diol] | ≤ 100 nM
